Reference: patent US20230149603A1, “DRUG-RELEASING POLYMER COMPOSITION AND DEVICE” (Novaflux Inc., priority 2021, published 2023)
Structures can show the parent of a compound that is named as a salt.

Experiments:
[1] = Thermogravimetric analysis of the APIs; type: physicochemical; settings: ramp heated to 140° C. and held for 10 minutes
Method: Thermogravimetric analysis was performed on the APIs used in compositions. Each drug was ramp heated to 140° C. and held at that temperature for 10 minutes. For all compositions, time spent melt-mixing is 8-10 minutes. The decomposition of the API in that time was less than 0.5% for each drug, meaning that the API are stable during processing. For Rifampin, the change in mass was 0.292%; for Minocycline HCl the change in mass was 0.421%; and for minocycline Free Base the change in mass was 0.137%.

S. Aureus = settings: averaged between the high and low of the MIC; cited from earlier work
E. Coli = settings: averaged between the high and low of the MIC; cited from earlier work
S. Epidermidis = settings: averaged between the high and low of the MIC; cited from earlier work
A. Baumanii = settings: averaged between the high and low of the MIC; cited from earlier work
[2] = cited from earlier work
[3] = Stability (discoloration) of the two forms of minocycline

CN(C)c1ccc(O)c2c1C[C@H]1C[C@H]3[C@H](N(C)C)C(O)=C(C(N)=O)C(=O)[C@@]3(O)C(O)=C1C2=O [Minocycline HCl]
change in mass (decomposition of the API) [1]: 0.421%

CO[C@H]1/C=C/O[C@@]2(C)Oc3c(C)c(O)c4c(O)c(c(/C=N/N5CCN(C)CC5)c(O)c4c3C2=O)NC(=O)/C(C)=C\C=C\[C@H](C)[C@H](O)[C@@H](C)[C@@H](O)[C@@H](C)[C@H](OC(C)=O)[C@@H]1C [Rifampicin]
MIC (S. Aureus): 0.0095 micrograms per ml | MIC (E. Coli): 10 micrograms per ml | change in mass (decomposition of the API) [1]: 0.292% | MIC (S. Epidermidis): 0.1 micrograms per ml | MIC (A. Baumanii): 6 micrograms per ml | solubility in water [2]: low solubility in water

CN(C)c1ccc(O)c2c1C[C@H]1C[C@H]3[C@H](N(C)C)C(=O)C(C(N)=O)=C(O)[C@@]3(O)C(=O)C1=C2O [minocycline Free Base]
discoloration process ([3]; dry powder form exposed to air): not observed at all | stability (discoloration) over time ([3]; stored in distilled water and formulated in compositions): the drug oxidizes with the passage of time | change in mass (decomposition of the API) [1]: 0.137%
